Laboratory results reported in article PMC4503722, “Novel Phenotypic Outcomes Identified for a Public Collection of Approved Drugs from a Publicly Accessible Panel of Assays” (PLoS ONE, 2015).

Tests used:
INS-1E cells [1] = test: cells; type: cell-based, rat; conditions: 5 mM glucose; for 5mMGluc_INS1E SecretionMod IC50/EC50: assay number 8
INS-1E cells [2] = type: cell-based, rat; conditions: 0.1 mM glucose; for 0.1mMGluc_INS1E SecretionMod Act IC50/EC50: assay number 9
[3] = tested on: tonic K+ channel activity in INS-1E cells; test: cells; type: cell-based, rat; conditions: 0.1 mM glucose; for 0.1mMGluc_INS1E FluxOR IC50/EC50: assay number 10
HeLa cells = test: cells; type: cell-based; conditions: for Hela CellCycMod PI 2N IC50/EC50: assay number 14; for Hela CellCycMod PI S Phase IC50/EC50: assay number 15; for Hela CellCycMod PI 4N IC50/EC50: assay number 16; for Hela CellCycMod PI MI IC50/EC50: assay number 17; for Hela CellCycMod PI Cell Number IC50/EC50: assay number 18
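Wherever 5mMGluc INS1E SecretionMod IC50/EC50 is given: secreted insulin quantified by homogeneous immunoassay.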
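Wherever IC50/EC50, 5mMGluc INS1E SecretionMod (assay number 8) is given: secreted insulin quantified by homogeneous immunoassay.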

O=c1[nH]c2ccccc2n1CCCN1CCC(n2c(=O)[nH]c3cc(Cl)ccc32)CC1 [NCGC00014670-17]
IC50/EC50, 5mMGluc_INS1E SecretionMod (assay number 8) (INS-1E cells [1]): 12.4283 µM | IC50/EC50, 0.1mMGluc_INS1E SecretionMod Act (assay number 9) (INS-1E cells [2]): > 33.33 µM | IC50/EC50, 0.1mMGluc_INS1E FluxOR (assay number 10) [3]: 36.5303 µM

CN(C)CCC=C1c2ccccc2CCc2ccccc21.Cl [NCGC00015095-15]
IC50/EC50, 5mMGluc_INS1E SecretionMod (assay number 8) (INS-1E cells [1]): 2.999 µM | IC50/EC50, Hela CellCycMod PI 2N (assay number 14) (HeLa cells; 2N): > 10 µM | IC50/EC50, Hela CellCycMod PI 4N (assay number 16) (HeLa cells; 4N): > 10 µM | IC50/EC50, Hela CellCycMod PI Cell Number (assay number 18) (HeLa cells; Cell Number): > 10 µM | IC50/EC50, Hela CellCycMod PI MI (assay number 17) (HeLa cells; MI): > 10 µM | IC50/EC50, Hela CellCycMod PI S Phase (assay number 15) (HeLa cells; S Phase): > 10 µM | IC50/EC50, 0.1mMGluc_INS1E SecretionMod Act (assay number 9) (INS-1E cells [2]): > 33.33 µM | IC50/EC50, 0.1mMGluc_INS1E FluxOR (assay number 10) [3]: 6.243 µM

CCCNCC(O)COc1ccccc1C(=O)CCc1ccccc1 (stereo not drawn) [NCGC00015819-15]
5mMGluc_INS1E SecretionMod IC50/EC50 (INS-1E cells [1]): 4.919 µM | Hela CellCycMod PI 2N IC50/EC50 (HeLa cells; 2N): > 10 µM | Hela CellCycMod PI S Phase IC50/EC50 (HeLa cells): > 10 µM | Hela CellCycMod PI 4N IC50/EC50 (HeLa cells; 4N): > 10 µM | Hela CellCycMod PI MI IC50/EC50 (HeLa cells; MI): > 10 µM | Hela CellCycMod PI Cell Number IC50/EC50 (HeLa cells): > 10 µM | 0.1mMGluc_INS1E SecretionMod Act IC50/EC50 (INS-1E cells [2]): > 33.33 µM | 0.1mMGluc_INS1E FluxOR IC50/EC50 [3]: 5.346 µM

CCC(=O)c1ccc2c(c1)N(CCCN(C)C)c1ccccc1S2.Cl [NCGC00015838-06]
5mMGluc_INS1E SecretionMod IC50/EC50 (INS-1E cells [1]): 10.7311 µM | 0.1mMGluc_INS1E SecretionMod Act IC50/EC50 (INS-1E cells [2]): > 33.33 µM | 0.1mMGluc_INS1E FluxOR IC50/EC50 [3]: 25.7434 µM

CN(C)CCN(Cc1ccc(Cl)cc1)c1ccccn1 [NCGC00016672-04]
5mMGluc_INS1E SecretionMod IC50/EC50 (INS-1E cells [1]): 6.1408 µM | 0.1mMGluc_INS1E SecretionMod Act IC50/EC50 (INS-1E cells [2]): 16.7904 µM | 0.1mMGluc_INS1E FluxOR IC50/EC50 [3]: 4.782 µM

CN1CCCN(C(c2ccccc2)c2ccc(Cl)cc2)CC1 (stereo not drawn) [NCGC00018271-07]
5mMGluc_INS1E SecretionMod IC50/EC50 (INS-1E cells [1]): > 3.703 µM | 0.1mMGluc_INS1E SecretionMod Act IC50/EC50 (INS-1E cells [2]): > 33.33 µM | 0.1mMGluc_INS1E FluxOR IC50/EC50 [3]: 15.6503 µM

CCN(CCCCOC(=O)c1ccc(OC)c(OC)c1)C(C)Cc1ccc(OC)cc1.Cl (stereo not drawn) [NCGC00018277-06]
5mMGluc_INS1E SecretionMod IC50/EC50 (INS-1E cells [1]): 1.952 µM | Hela CellCycMod PI 2N IC50/EC50 (HeLa cells; 2N): > 10 µM | Hela CellCycMod PI S Phase IC50/EC50 (HeLa cells): > 10 µM | Hela CellCycMod PI 4N IC50/EC50 (HeLa cells; 4N): > 10 µM | Hela CellCycMod PI MI IC50/EC50 (HeLa cells; MI): > 10 µM | Hela CellCycMod PI Cell Number IC50/EC50 (HeLa cells): > 10 µM | 0.1mMGluc_INS1E SecretionMod Act IC50/EC50 (INS-1E cells [2]): > 33.33 µM | 0.1mMGluc_INS1E FluxOR IC50/EC50 [3]: 1.737 µM

CCN(CC)CCOCCOC(=O)C1(c2ccccc2)CCCC1 [NCGC00024595-08]
5mMGluc_INS1E SecretionMod IC50/EC50 (INS-1E cells [1]): 7.687 µM | 0.1mMGluc_INS1E SecretionMod Act IC50/EC50 (INS-1E cells [2]): > 33.33 µM | 0.1mMGluc_INS1E FluxOR IC50/EC50 [3]: 4.656 µM
